From ChEMBL document CHEMBL4627250, “Suitable fusion of N-terminal heptad repeats to achieve covalently stabilized potent N-peptide inhibitors of HIV-1 infection” (Bioorg Med Chem, 2020)

Assay: Thermal stability of compound assessed as melting temperature at 10 uM
Type: physicochemical

| Substance | Tm |
| --- | --- |
| H-RIQQIEQKIHHIEQRIQQIEQRIEAQQHLLQLTVWGIKQLQARIL-OH | 74 °C |
| H-RIQQIEQKIHHIEQRIQQIEQRISGIVQQQNNLLRIEAQQHLLQLTVWGIKQLQARIL-OH | 82 °C |
| H-RIQQIEQKIHHIEQRIQQIEQLLQLTVWGIKQLQARIL-OH | 72 °C |
